From patent US4870210A, “Aminoguanidine derivative as anti-inflammatory agents” (American Home Products Corporation, priority 1987, dated 1989)

Legend:
[1] = rat carrageenan paw edema assay; type: in vivo, rat (male Sprague-Dawley); details: po, 3 h, read-out: Oral ED50 (95% C.L.)
Description: The compounds of the invention are further tested in the rat carrageenan paw edema assay to determine their ability to inhibit the acute inflammatory response. This assay is carried out as follows: 140-180 gm male Sprague-Dawley rats, in groups of 6 animals are injected subcutaneously in the right paw with 0.1 ml of 1% carrageenan at zero time. Mercury plethysmographic readings (ml) of the paw are made at zero time and 3 hours later. Test compounds are suspended or dissolved in 0.5% methylcellulose and given perorally 1 hour prior to carrageenan administration. The increase in paw volume (edema in ml.) produced by the carrageenan is measured. […] Unpaired Student's t-test is used to determine statistical significance.

[2] = system: synthesis of LTC4 by murine peritoneal macrophages; assay: inhibition of the synthesis of LTC4 by murine peritoneal macrophages; type: cell-based, mouse (CD-1); details: Mus musculus, Peritoneal macrophage, zymosan or TPA stimulus, RIA
Description: (§1) The ability of the compounds of the invention to inhibit both leukotriene and prostaglandin synthesis is examined in an assay which measures the ability of the compounds of the invention to inhibit the synthesis of PGE2 and LTC4 by murine peritoneal macrophages.
(§2) The assay is carried out as follows:
(§3) Macrophages are removed from the peritoneal cavity of 55-57 day old CD-1 mice (killed by CO2 asphyxiation) by peritoneal lavage and centrifuged at 400×g for ten minutes. The cells are resuspended in Medium 199 and 4×10^6 cells are allowed to adhere on 35×10 mm Petri dishes for 1.5 hours at 37° C. in an atmosphere of 95% air and 5% CO2. The cell monolayers are washed and incubated overnight in Medium 199 supplemented with 10% heat inactivated bovine serum containing 1 μCi[^14 C]-arachidonic acid, or in the absence of ^14 C-arachidonic acid when the supernatant is to be assayed by radioimmunoassay (RIA). The labeled cells are then washed and incubated at 37° C. for 2 hours in Medium 199 with the prostaglandin stimuli, zymosan, or 12-o-tetradecanoyl-phorbol-13-acetate (TPA) and in the presence or absence of test compounds. Following incubation, the supernatant is removed and subjected to radioimmunoassay in order to determine the percent inhibition of prostaglandin E2 and leukotriene C4 by the test compounds.

[3] = system: synthesis of LTB4 by rat glycogenelicited polymorphonuclear leukocytes (PMN); assay: inhibition of the synthesis of LTB4 (lipoxygenase oxidation product) by rat glycogen-elicited polymorphonuclear leukocytes (PMN); type: cell-based, rat (female Wistar); details: Leukocyte, A23187 stimulated
Description: This is especially true with respect to 5,12-diHETE, which also denoted as LTB4 [see Ford-Hitchinson, J. Roy. Soc. Med., 74, 831 (1981)]. The assay of this Example measures the ability of the compounds of the invention to inhibit the synthesis of LTB4 by rat glycogenelicited polymorphonuclear leukocytes (PMN).
as §2
(§4) Rat polymorphonuclear leukocytes (PMNs) are obtained from female Wistar rats (150-200 g) which receive an injection of 6% glycogen (10 ml i.p.). Rats are sacrificed 18-24 hours post injection by CO2 asphyxiation and the elicited cells are harvested by peritoneal lavage using physiological saline (0.9% NaCl). The exudate is centrifuged at 400×g for 10 minutes. The supernatant fluid is discarded and the cell pellet is resuspended in a concentration of 2.0×10^7 cells/ml in HBSS containing Ca^++ and Mg^++ and 10 μM L-cyteine.
To 1 ml aliquots of cell suspension, test drugs or vehicle are added, then preincubated at 37° C. for 10 minutes. […] Supernatants are then analyzed by HPLC analysis on a 15 cm×4.6 mm ID Supelcosil LC-18 (Supelco)(3M) column, using a two solvent system at a flow rate of 1.4 ml total flow as follows: […]
Injections: 150 μl of each supernatant is injected directly onto column and ^3 H arachidonic acid metabolites are monitored using an on-line radioactivity detector (Ramona, IN/US, Fairfield, NJ). […]

[4] = system: synthesis of PGE2 by murine peritoneal macrophages; assay: inhibition of the synthesis of PGE2 by murine peritoneal macrophages; type: cell-based, mouse (CD-1); details: Mus musculus, Peritoneal macrophage, zymosan or TPA stimulus, RIA
Description: as §1, §2, §3

[5] = system: synthesis of the arachidonic acid cyclooxygenase oxidation product TxB2; assay: inhibition of the synthesis of the cyclooxygenase oxidation product TxB2 by rat polymorphonuclear leukocytes; type: cell-based, rat (female Wistar); details: Leukocyte; rat PMN, A23187 stimulated
Description: as §4
To 1 ml aliquots of cell suspension, test drugs or vehicle are added, then preincubated at 37° C. for 10 minutes. A23187 (1 μM) and [^3 H]-AA (3.0 μCi/ml) are then added and the samples are further incubated for 10 minutes. The reaction is terminated by centrifugation and pelleting cells. Supernatants are then analyzed by HPLC analysis on a 15 cm×4.6 mm ID Supelcosil LC-18 (Supelco)(3M) column, using a two solvent system at a flow rate of 1.4 ml total flow as follows:
Co-chromatography with standard [^3 H] leukotriene B4 (LTB4) in medium of stimulated PMN exposed to drug is compared to that found in medium of stimulated cells exposed to no drug, generating percent inhibition.
In this assay, the procedure of Example 3 is carried out as described. […]
The results are calculated as in Example 3 and presented below: […]

Row | IC50 [2] [µM] | IC50 [3] [µM] | IC50 [4] [µM] | IC50 [5] [µM] | SMILES | ED50 [1] [mg/kg]
1 | – | – | – | – | CC(=O)Oc1ccccc1C(=O)O [Aspirin] | 145
2 | 33 | 8.9 | 43 | 11.2 | CC(=NNC(=N)N)c1cccc(OCc2ccc3ccccc3c2)c1 [Example 1, 2-[1-[3-(2-Naphthalenylmethoxy)phenyl]ethylidene]-hydrazinecarboximidamide] | –
3 | – | – | – | – | COc1ccc2c(c1)c(CC(=O)O)c(C)n2C(=O)c1ccc(Cl)cc1 [Indomethacin] | 3.7
